Measured values published in US20170027172A1, “USE OF SUBSTITUTE OXO TETRAHYDROQUINOLINE SULFONAMIDES OR SALTS THEREOF FOR RAISING STRESS TOLERANCE OF PLANTS” (BAYER CROPSCIENCE AKTIENGESELLSCHAFT, priority 2014, published 2017).

Biological target: T1, phosphatase ABI1 via the co-regulator RCAR11/PYR1 (Arabidopsis thaliana, UniProt O49686+P49597)
T1 sequence (O49686 1-191): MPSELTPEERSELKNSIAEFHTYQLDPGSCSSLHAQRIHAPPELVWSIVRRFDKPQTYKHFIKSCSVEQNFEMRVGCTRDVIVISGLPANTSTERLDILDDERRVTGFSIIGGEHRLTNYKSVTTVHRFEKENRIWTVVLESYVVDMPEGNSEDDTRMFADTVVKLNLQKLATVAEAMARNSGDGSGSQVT
T1 sequence (P49597 1-434): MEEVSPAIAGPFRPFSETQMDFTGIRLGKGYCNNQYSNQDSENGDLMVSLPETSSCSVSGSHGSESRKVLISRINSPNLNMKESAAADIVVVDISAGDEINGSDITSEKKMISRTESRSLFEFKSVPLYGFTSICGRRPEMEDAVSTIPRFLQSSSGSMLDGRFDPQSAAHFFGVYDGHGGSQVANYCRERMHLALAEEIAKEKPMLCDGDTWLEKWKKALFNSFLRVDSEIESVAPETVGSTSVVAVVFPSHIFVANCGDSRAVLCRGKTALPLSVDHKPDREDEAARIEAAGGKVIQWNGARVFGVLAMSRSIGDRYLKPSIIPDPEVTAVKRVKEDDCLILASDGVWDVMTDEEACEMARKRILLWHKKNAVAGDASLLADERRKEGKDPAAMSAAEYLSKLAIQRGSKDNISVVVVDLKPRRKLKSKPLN
Assay: In vitro inhibition of the phosphatase ABI1 via the co-regulator RCAR11/PYR1, MUP dephosphorylation
Type: biochemical
Set-up: dose or concentration left out as unconfirmed
Details: in a solution of DMSO and water; fluorescence at 460 nm
Outline: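 Arabidopsis ABI1 (0.15 μg/well) with RCAR11/PYR1 (0.30 μg/well) in Tris-HCl pH 8, NaCl, MnCl2, DTT, Tween20; MUP substrate, 20 min at 35 °C, fluorescence ex 340/em 460 nm. Compounds tested at 5 mM in DMSO/water, optionally pre-treated with porcine liver esterase; inhibition banded ≥90/70/50/30%.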

ABI1 inhibition: +++ (90%>inhibition≧70%)
SMILES: COC(=O)CCN1C(=O)CCc2cc(NS(=O)(=O)Cc3ccc(F)cc3)ccc21 [A51-158]
